# Entries after “also recorded” stand apart in the source; their conditions may differ. Read-outs that look alike come from different tables or passages of the source.
# Key:
# [1] = system: E. multilocularis protoscoleces; test: Ex vivo culture assay of live protoscoleces, viability by trypan blue exclusion; format: cell-based, Echinococcus multilocularis; conditions: 50 μM; for antiparasitic effect on protoscoleces in culture assay: both anaerobic and aerobic conditions
# Method: FIG 5 Viability of E. multilocularis protoscoleces in ex vivo culture assay. The E. multilocularis protoscoleces were treated with ascofuranone (AF) and its derivatives in culture under aerobic and anaerobic conditions (O2 <0.3%). Each compound was added to the culture medium at a final concentration of 50 μM. The control group was supplemented with 0.5% (vol/vol) dimethyl sulfoxide (DMSO). Atovaquone (ATV) was used as positive control and to ensure anaerobic conditions in the culture. The viability of protoscoleces was evaluated by their ability to exclude trypan blue. The data are presented as the mean ± standard deviation (n = 3).
# The obtained protoscoleces were cultured in Connaught Medical Research Laboratories 1066 medium (Gibco, Grand Island, NY, USA) containing 0.5% (wt/vol) yeast extract (Difco Laboratories, Detroit, MI, USA), 2 mM L-glutamine (Gibco), 23 mM 4-(2-hydroxyethyl)-1-piperazineethanesulfonic acid, 0.5% (wt/vol) D (+)-glucose, 0.4 mM sodium taurocholate (Wako Pure Chemical Industries, Osaka, Japan), 57 mM sodium hydrogen carbonate, and 100 U/mL penicillin-streptomycin (Gibco). The protoscoleces were observed daily for seven consecutive days, and half of the medium was replaced on day 3. For anaerobic cultures, six-well plates were sealed in plastic containers with oxygen-detecting agents and oxygen scavengers (Aneromeito, Nissui Pharmaceutical, Tokyo, Japan) to keep the oxygen concentration below 0.3% at 37°C. The protoscoleces were treated with AF and its derivatives at a final concentration of 50 μM in the culture medium, and the duration of parasite elimination was investigated. The control group was supplemented with 0.5% (vol/vol) dimethyl sulfoxide (DMSO), and all conditions were assayed in triplicate. We used ATV in a culture assay as positive control and to ensure anaerobic conditions in the culture ([4], [5]). […] The viability of protoscoleces was determined after microscopic observation of more than 170 protoscoleces per well using the trypan blue exclusion test, as described previously ([4], [6], [33]).
# [2] = molecular target: complex II (succinate:quinone reductase, SQR) (Echinococcus multilocularis, UniProt A0A1Z4EAW8+A0A1Z4EAX0+A0A1Z4EAX1); test: Succinate:quinone reductase (SQR) activity (complex II) in protoscoleces mitochondrial fraction; format: biochemical
# Sequence of complex II (succinate:quinone reductase, SQR) (A0A1Z4EAV8 entry or part of it): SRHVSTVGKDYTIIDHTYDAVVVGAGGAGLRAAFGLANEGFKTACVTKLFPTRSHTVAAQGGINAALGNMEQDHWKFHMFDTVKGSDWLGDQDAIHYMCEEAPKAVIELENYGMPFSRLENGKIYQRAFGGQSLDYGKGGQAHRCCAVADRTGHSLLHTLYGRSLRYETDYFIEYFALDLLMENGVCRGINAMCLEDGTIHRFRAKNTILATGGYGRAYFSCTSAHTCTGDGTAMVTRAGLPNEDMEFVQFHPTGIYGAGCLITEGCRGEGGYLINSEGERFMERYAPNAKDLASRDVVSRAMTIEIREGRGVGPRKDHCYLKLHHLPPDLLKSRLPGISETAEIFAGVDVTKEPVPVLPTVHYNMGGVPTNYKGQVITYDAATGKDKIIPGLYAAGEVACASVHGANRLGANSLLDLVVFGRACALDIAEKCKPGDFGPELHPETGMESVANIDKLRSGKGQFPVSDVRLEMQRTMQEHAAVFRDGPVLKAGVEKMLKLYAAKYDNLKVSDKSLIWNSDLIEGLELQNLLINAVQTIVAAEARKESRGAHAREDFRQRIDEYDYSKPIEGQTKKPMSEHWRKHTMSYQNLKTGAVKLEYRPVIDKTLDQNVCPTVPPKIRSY
# Sequence of complex II (succinate:quinone reductase, SQR) (A0A1Z4EAX1 entry or part of it): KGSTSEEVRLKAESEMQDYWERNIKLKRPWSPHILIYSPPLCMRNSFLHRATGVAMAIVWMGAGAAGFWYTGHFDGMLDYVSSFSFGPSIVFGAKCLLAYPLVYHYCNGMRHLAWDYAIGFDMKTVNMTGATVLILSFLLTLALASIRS
# Sequence of complex II (succinate:quinone reductase, SQR) (A0A1Z4EAX0 entry or part of it): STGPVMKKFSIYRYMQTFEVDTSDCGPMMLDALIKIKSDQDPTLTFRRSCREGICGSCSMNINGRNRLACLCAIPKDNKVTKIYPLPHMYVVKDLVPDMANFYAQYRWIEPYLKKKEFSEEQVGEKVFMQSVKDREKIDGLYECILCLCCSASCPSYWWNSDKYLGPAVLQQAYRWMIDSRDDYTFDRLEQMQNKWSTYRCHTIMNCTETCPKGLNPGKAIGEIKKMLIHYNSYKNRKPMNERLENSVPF
# Sequence of complex II (succinate:quinone reductase, SQR) (A0A1Z4EAW8 entry or part of it): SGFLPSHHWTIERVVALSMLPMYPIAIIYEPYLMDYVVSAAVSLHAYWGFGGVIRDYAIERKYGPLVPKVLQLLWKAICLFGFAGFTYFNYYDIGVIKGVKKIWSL
# Description: (§1) Cyst tissues containing E. multilocularis (Nemuro strain) protoscoleces isolated from infected hispid cotton rats, Sigmodon hispidus, were used. The tissues were shredded through a metal mesh (0.5 mm diameter). Then, the tissues were repeatedly suspended and washed with physiological saline in a tall beaker to obtain protoscoleces by exploiting the buoyancy difference between protoscoleces and other tissue ([26]). The obtained protoscoleces were homogenized with a motor-driven homogenizer to prepare the mitochondrial fraction. The homogenate was diluted with mitochondrial preparation buffer (210 mM mannitol, 10 mM sucrose, 1 mM disodium EDTA, and 50 mM Tris-HCl [pH 7.5]) supplemented with 10 mM sodium malonate to 5 times the volume of the original protoscolex homogenate, and then centrifuged at 800 × g for 10 min (4°C) to remove cell debris and nuclei. The supernatant was then centrifuged at 8,000 × g for 10 min (4°C) to obtain the mitochondrial pellet. Next, the pellet was resuspended in mitochondrial preparation buffer (without malonate) and centrifuged at 8,000 × g for 10 min (4°C). The enriched mitochondrial fraction was finally suspended in approximately 0.5 to 1.0 mL of mitochondrial preparation buffer without malonate and frozen at −50°C. The mitochondrial fraction from A. suum was prepared essentially as described previously ([27], [28]).
# (§2) NADH:quinone reductase activity (complex I), succinate:quinone reductase activity (complex II), and succinate:cytochrome c reductase activity (complexes II to III) were measured using a UV-3000 spectrophotometer (Shimadzu, Kyoto, Japan) as described previously ([4], [6]). Briefly, all enzyme assays using mitochondrial fractions were performed in 0.5- or 1.0-mL reaction mixtures at 25°C. A freeze/thaw process was performed before the assay to ensure that the mitochondrial membrane was permeable to the solutes. The final mitochondrial protein concentration was 50 μg/mL. NADH:quinone reductase activity was measured in 50 mM potassium phosphate buffer (pH 7.4) containing 2 mM potassium cyanide, KCN (Sigma, St. Louis, MO, USA), and 60 μM decylubiquinone (Sigma). The activity assay was started by the addition of 50 μM NADH (Fujifilm-Wako, Tokyo, Japan) and recorded as the rate of NADH consumption as monitored at 340 nm (ε = 6.2 mM^−1 cm^−1). The reagents used in the SQR activity assay were mixed with the reaction buffer containing 50 mM potassium phosphate (pH 7.4) and 0.1% (wt/vol) sucrose monolaurate (DOJINDO, Kumamoto, Japan). SQR activity was determined by monitoring the change in absorbance of quinone at 278 nm (ε = 15 mM^−1 cm^−1) in the presence of 60 μM decylubiquinone, 2 mM KCN, and the inhibitor. The reaction was initiated by the addition of 10 mM disodium succinate to the mixture. NADH:cytochrome c activity (complex I to III) was measured in the reaction buffer (30 mM potassium phosphate, 1 mM MgCl2, pH 7.5) containing 2 mM KCN, 50 μM cytochrome c (Nacalai Tesque, Kyoto, Japan), and the inhibitor. The assay was performed after the addition of 100 mM malonate to block complex II activity. The reaction was started by adding 50 μM NADH to the mixture, and the enzyme activity was determined by monitoring the change in absorbance of cytochrome c at 550 nm (ε = 19 mM^−1 cm^−1). IC50 values of AF and its derivatives against the specific activities of mitochondrial respiratory enzymes in protoscoleces were determined. The IC50 of each compound was determined by calculating approximation lines from three or more points on either side of the IC50 concentration.
# [3] = molecular target: complex I (NADH:quinone reductase) (Echinococcus multilocularis, UniProt A0A068Y553+A0A068Y9L9+Q9TE76); test: NADH:quinone reductase activity (complex I) in protoscoleces mitochondrial fraction; format: biochemical; conditions: for IC50: E. multilocularis protoscoleces mitochondria, read-out: IC50 NADH:decyl rhodoquinone reductase (complex I)
# Description: as §1
# as §2, with “Louis, MO, USA), and 60 μM decylubiquinone (Sigma).” left out, “SQR activity was determined by monitoring the change in absorbance of quinone at 278 nm (ε = 15 mM^−1 cm^−1) in the presence of 60 μM decylubiquinone, 2 mM KCN, and the inhibitor.” left out
# [4] = molecular target: complex I and III (NADH:cytochrome c reductase) (Echinococcus multilocularis, UniProt Q9TE80); test: NADH:cytochrome c reductase activity (complex I to III) in protoscoleces mitochondrial fraction; format: biochemical
# Sequence of complex I and III (NADH:cytochrome c reductase) (Q9TE80 entry or part of it): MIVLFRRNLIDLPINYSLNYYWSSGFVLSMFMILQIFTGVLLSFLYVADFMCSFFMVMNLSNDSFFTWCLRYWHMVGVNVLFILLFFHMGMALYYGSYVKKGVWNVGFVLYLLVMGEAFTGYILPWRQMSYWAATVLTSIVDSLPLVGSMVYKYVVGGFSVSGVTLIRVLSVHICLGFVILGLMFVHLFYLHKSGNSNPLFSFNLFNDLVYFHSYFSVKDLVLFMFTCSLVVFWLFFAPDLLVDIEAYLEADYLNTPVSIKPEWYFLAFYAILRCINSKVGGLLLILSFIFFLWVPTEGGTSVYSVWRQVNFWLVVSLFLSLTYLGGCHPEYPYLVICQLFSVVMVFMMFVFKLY
# Sequence of complex I and III (NADH:cytochrome c reductase) (Q9GP40 whole entry, further chain): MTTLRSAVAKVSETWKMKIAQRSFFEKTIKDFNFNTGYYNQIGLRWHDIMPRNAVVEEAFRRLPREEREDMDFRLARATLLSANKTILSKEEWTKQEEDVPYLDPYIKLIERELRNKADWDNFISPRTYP
# Sequence of complex I and III (NADH:cytochrome c reductase) (Q9TE76 entry or part of it, further chain): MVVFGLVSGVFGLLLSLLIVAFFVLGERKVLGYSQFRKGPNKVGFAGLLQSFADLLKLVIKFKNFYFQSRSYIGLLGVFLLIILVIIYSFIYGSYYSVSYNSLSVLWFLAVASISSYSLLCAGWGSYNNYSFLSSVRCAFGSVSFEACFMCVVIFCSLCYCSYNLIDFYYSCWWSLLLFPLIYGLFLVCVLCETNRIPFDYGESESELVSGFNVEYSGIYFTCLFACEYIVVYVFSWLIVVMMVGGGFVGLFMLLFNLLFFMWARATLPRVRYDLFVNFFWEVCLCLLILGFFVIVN
# Description: as §1, §2
# [5] = IC50, E. multilocularis SQR inhibition, Table 5, furanone ring-substituted derivatives, mean ± SEM
# [6] = IC50, inhibition of E. multilocularis SQR, Table 2, substitutions on the benzene group, mean ± SEM
# [7] = IC50 Succinate:quinone reductase (SQR) (complex II), E. multilocularis protoscoleces mitochondria, mean ± SEM, Table 1
# [8] = IC50 against E. multilocularis SQR, Table 3, various side chain lengths, mean ± SEM
# [9] = E. multilocularis protoscoleces mitochondria; mean ± SEM; Table 1; read-out: IC50 NADH:cytochrome c reductase (complex I and III)
# [10] = IC50 against E. multilocularis complex II (SQR), figure legends, supplement
# [11] = IC50, inhibition of E. multilocularis SQR, Table 4, different linker structures, mean ± SEM
structure (smiles),measurement,setting,value
"C/C(=C\Cc1c(O)c(Cl)c(C)c(C=O)c1O)CC/C=C(\C)[C@@H]1CC(=O)C(C)(C)O1 [AF, Ascofuranone]",viability of protoscoleces during treatment,[1]; aerobic culture,progressively reduced
same,viability / killing of protoscoleces during treatment,[1]; anaerobic culture (O2 <0.3%),progressively reduced; also recorded: strong killing effect
same,antiparasitic effect on protoscoleces in culture assay,[1],strong antiparasitic effect
same,IC50,[2]; [5],1.1 ± 0.21 µM
same,IC50,[2]; [6],1.1 ± 0.21 µM
same,IC50,[2]; [7],1.1 ± 0.21 µM
same,inhibition of NADH:ubiquinone reductase activity of complex I,[3],not inhibited
same,IC50,[3],> 50 µM
same,IC50,[4]; read-out: IC50 NADH:cytochrome c reductase (complex I and III); E. multilocularis protoscoleces mitochondria; mean ± SEM; Table 1,0.057 ± 0.011 µM
Cc1c(Cl)c(O)cc(O)c1C=O [Compound C0],IC50,[2]; [8],> 20 µM
C/C=C/c1c(O)c(Cl)c(C)c(C=O)c1O [Compound C3],IC50,[2]; [8],5.4 ± 0.7 µM
CCC/C=C/c1c(O)c(Cl)c(C)c(C=O)c1O [Compound C5],IC50,[2]; [8],3.3 ± 0.27 µM
CCCCC/C=C/c1c(O)c(Cl)c(C)c(C=O)c1O [Compound C7],IC50,[2]; [8],0.95 ± 0.27 µM
CCCCCCC/C=C/c1c(O)c(Cl)c(C)c(C=O)c1O [Compound C9],IC50,[2]; [8],1.2 ± 0.12 µM
CCCCCCCC/C=C/c1c(O)c(Cl)c(C)c(C=O)c1O [Compound C10],IC50,[2]; [8],1.2 ± 0.08 µM
CCCCCCCCCC/C=C/c1c(O)c(Cl)c(C)c(C=O)c1O [Compound C12],IC50,[2]; [8],1.7 ± 0.72 µM
CC(C)=CCC/C(C)=C/CC/C(C)=C/Cc1c(O)c(Cl)cc(C=O)c1O [Compound D1],IC50,[2]; [7],0.088 ± 0.013 µM
same,IC50,[3],> 50 µM
same,IC50,[4]; [9],0.274 ± 0.025 µM
CC(C)=CCC/C(C)=C/CC/C(C)=C/Cc1c(O)c(Cl)c(C)c(C=O)c1O [Compound D2],day of complete elimination of protoscoleces,[1]; aerobic culture,≤ 4 days
same,day of complete elimination of protoscoleces,[1]; anaerobic culture (O2 <0.3%),6 days
same,antiparasitic effect on protoscoleces in culture assay,[1],strong antiparasitic effect
same,IC50,[2]; [5],0.309 ± 0.021 µM
same,IC50,[2]; [7],0.309 ± 0.021 µM
same,IC50,[2]; [10],0.3 µM
same,IC50,[3],> 50 µM
same,IC50,[4]; [9],0.008 ± 0.002 µM
same,selectivity complex III over complex II (aerobic vs anaerobic),[4]; IC50 complex II 0.309 μM vs complex III 0.008 μM,38 fold
CC(=O)c1c(C)c(Cl)c(O)c(C/C=C(\C)CC/C=C(\C)CCC=C(C)C)c1O [Compound D3],IC50,[2]; [7],0.135 ± 0.014 µM
same,IC50,[3],> 50 µM
same,IC50,[4]; [9],0.014 ± 0.002 µM
CC(=O)c1cc(Cl)c(O)c(C/C=C(\C)CC/C=C(\C)CCC=C(C)C)c1O [Compound D4],elimination of protoscoleces on day 7,"[1]; aerobic culture, day 7",34%
same,elimination of protoscoleces by day 7,"[1]; anaerobic culture (O2 <0.3%), day 7",65%
same,antiparasitic effect on protoscoleces in culture assay,[1],weak
same,IC50,[2]; [7],0.037 ± 0.008 µM
same,IC50,[3],> 50 µM
same,IC50,[4]; [9],0.109 ± 0.009 µM
CC(=O)c1c(C)c(Cl)c(O)c(C/C=C(\C)CCC=C(C)C)c1O [Compound D6],IC50,[2]; [6],0.21 ± 0.022 µM
CC(C)=CCC/C(C)=C/Cc1c(O)c(Cl)c(C)c(C=O)c1O [Compound D7],increase of SQR IC50 compared to D6,[2]; 1-aldehyde (D7) vs 1-acetyl (D6),2 fold
CC(C)=CCC/C(C)=C/Cc1c(O)cc(C)c(C=O)c1O [Compound D8],IC50,[2]; [6],> 10 µM
COC(=O)c1c(C)c(Cl)c(O)c(C/C=C(\C)CCC=C(C)C)c1O [Compound D9],IC50,[2]; [6],> 10 µM
C/C(=C\Cc1c(O)c(Cl)cc(C=O)c1O)CC/C=C(\C)C1CC(=O)C(C)(C)O1 (stereo not drawn) [Compound D10],IC50,[2]; [6],0.55 ± 0.13 µM
COc1c(Cl)c(C)c(C=O)c(O)c1C/C=C(\C)CC/C=C(\C)C1CC(=O)C(C)(C)O1 (stereo not drawn) [Compound D11],SQR inhibitory activity,[2]; 4-OH changed to methoxy,inhibitory activity was lost
same,IC50,[2]; [6],> 10 µM
CC(C)=CCC/C(C)=C/Cc1c(O)c(Cl)c(C)c(C=O)c1O [Compound D12],IC50,[2]; [11],0.57 ± 0.03 µM
Cc1c(Cl)c(O)c(CCC(C)CCCC(C)C)c(O)c1C=O (stereo not drawn) [Compound D13],IC50,[2]; [11],0.28 ± 0.05 µM
CCCCCC(C)CCc1c(O)c(Cl)c(C)c(C=O)c1O (stereo not drawn) [Compound D14],IC50,[2]; [11],0.54 µM
CCCCCCCCc1c(O)c(Cl)c(C)c(C=O)c1O [Compound D15],IC50,[2]; [11],0.89 ± 0.11 µM
C#CCOC/C(C)=C/CC/C(C)=C/Cc1c(O)c(Cl)c(C)c(C=O)c1O [Compound D16],IC50,[2]; [5],0.258 ± 0.072 µM
same,IC50,[2]; [10],0.25 µM
C/C(=C\Cc1c(O)c(Cl)c(C)c(C=O)c1O)CC/C=C(\C)COC(=O)C(C)(C)C [Compound D17],IC50,[2]; [5],0.488 ± 0.015 µM
same,IC50,[2]; [10],0.48 µM
C/C(=C\Cc1c(O)c(Cl)c(C)c(C=O)c1O)CC/C=C(\C)C(C)O (stereo not drawn) [Compound D18],IC50,"[2]; read-out: IC50, E. multilocularis SQR inhibition, Table 5, furanone ring-substituted derivatives, mean ± SEM",3.77 ± 0.98 µM
C/C(=C\CC/C(C)=C/Cc1c(O)c(Cl)c(C)c(C=O)c1O)CO [Compound D19],IC50,[2]; [5],> 10 µM

# Source: paper PMC10019194, “Killing Two Birds with One Stone: Discovery of Dual Inhibitors of Oxygen and Fumarate Respiration in Zoonotic Parasite, Echinococcus multilocularis” (Antimicrobial Agents and Chemotherapy, 2023)
